Test results: US9611330B2, “Compositions and methods for cancer and cancer stem cell detection and elimination” (The Regents of the University of California, priority 2011, dated 2017)
Entries after “also recorded” stand apart in the source; their conditions may differ. Read-outs that look alike come from different tables or passages of the source.

Columns and labels:
[1] = tested on: normal human cord blood HSPC; assay: Normal human HSPC in hematopoietic progenitor assays and SL/M2 co-culture; format: cell-based
Procedure: (§1) Normal or blast crisis CML CD34^+ cells were plated on confluent mitomycin-C treated SL/M2 cells with different doses of PF-04449913, dasatinib, a combination of PF-04449913 and dasatinib, or vehicle for […]. After 1 week of culture, FACS was used to quantify human progenitors and progenitors were FACS sorted into hematopoietic progenitor assays. Colonies were scored after 2 weeks in culture.
(§2) The mouse bone marrow stromal cells lines M2-10B4 (M2) and SL/SL (SL) were provided by StemCell Technologies on behalf of Dr. Donna Hogge in the Terry Fox Laboratory (Vancouver, British Columbia). One day prior to co-culture, the cell lines were treated with mitomycin-C (1 mg/ml) and plated in a 1:1 mixture in total concentration of 100,000/ml. 10,000-20,000 CD34^+ blast crisis CML or normal cells were then plated on adherent SL/M2 stromal cells, cultured for 7 days, and analyzed by FACS as described previously^19. To assess expansion of normal human HS/PCs, irradiated OP9 (M2 clone) stromal cells (20 Gray on a Saxon-Mark1 irradiator) were co-cultured with 50,000 human CD34^+ cord blood. OP9M2 stroma was grown in AlphaMem from Gibco with 20% Hyclone FBS, 1% pen strep glutamine and supplemented with cytokines: […] Flt3.

[2] = biological target: T1, human SMO (amino acids 181-787) (Homo sapiens, UniProt Q99835); assay: SMO radioligand competition binding assay
T1 construct: V5-His (named only in the vector, pSecTag-FRT/V5-His); expressed in transfected cells; membranes prepared
T1 sequence (Q99835 181-787): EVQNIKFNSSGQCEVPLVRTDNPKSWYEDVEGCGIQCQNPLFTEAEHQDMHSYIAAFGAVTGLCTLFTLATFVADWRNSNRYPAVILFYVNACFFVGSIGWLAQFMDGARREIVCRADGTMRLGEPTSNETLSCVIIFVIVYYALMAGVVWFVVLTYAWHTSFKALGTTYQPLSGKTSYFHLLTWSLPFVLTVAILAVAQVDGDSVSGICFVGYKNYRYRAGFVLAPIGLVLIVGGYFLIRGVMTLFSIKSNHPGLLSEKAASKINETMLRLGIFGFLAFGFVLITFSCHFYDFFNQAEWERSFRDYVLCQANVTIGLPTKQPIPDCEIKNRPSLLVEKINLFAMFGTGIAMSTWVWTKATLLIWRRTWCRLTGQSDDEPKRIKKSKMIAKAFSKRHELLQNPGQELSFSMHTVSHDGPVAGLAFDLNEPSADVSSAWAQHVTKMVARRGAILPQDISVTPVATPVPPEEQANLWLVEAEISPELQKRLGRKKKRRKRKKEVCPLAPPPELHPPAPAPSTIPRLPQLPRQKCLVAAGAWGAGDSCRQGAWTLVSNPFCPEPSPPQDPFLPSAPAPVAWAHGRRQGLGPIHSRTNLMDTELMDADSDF
Procedure: SMO Radioligand Competition Binding Assay
Membranes were prepared from a stable cell line created in HEK293FlpIn-TetR cells (Invitrogen) using Flp recombinase-mediated insertion of the pSecTag-FRT/V5-His vector containing a cDNA encoding amino acids 181-787 of human Smo fused to the murine Igk leader sequence to produce a cell surface expressed […] protein. LacZ-negative cells were analyzed for binding a well characterized cyclopamine-competitive tritiated Smo antagonist^22. The tritiated ligand was prepared using Crabtree's catalyst and tritium gas. The labeled material was purified by RP HPLC (53.1 Ci/mmol specific activity at 99% purity). For the binding competition assay, 100 μl of assay buffer was added to all the wells of a 96 well GF/B filter plate (Millipore MULTISCREEN-HTS-FB™ cat # MSFBN6B50). The plates were counted in a TOPCOUNT™ scintillation counter (Perkin Elmer). Data analysis uses EXCEL™ for % Inhibition and GRAPHPAD PRISM™ for IC50 calculation.

[3] = tested on: Shh stimulated luciferase expression under an 8× Gli-response element; assay: Mouse embryonic fibroblast Gli-luciferase reporter assay (Gli-Luc MEFs); format: cell-based; settings: n=5, read-out: IC50, inhibition of Shh stimulated luciferase reporter activity in Gli-Luc MEFs
Description: Mouse Embryonic Fibroblast Gli-Luciferase Assay Mouse Embryonic Fibroblasts expressing luciferase under control of an 8× Gli-response element (Gli-Luc MEFs)^23 were obtained from the Pfizer transgenic core facility. Luciferase activity was quantified with an ENVISION™ plate reader (Perkin Elmer). Graphpad Prism was used for data analysis and IC50 calculation.

[4] = tested on: Ptch+/−p53+/− medulloblastoma allografts; assay: Mouse medulloblastoma allograft model; format: in vivo; settings: oral dosing
Description: TAQMAN™ primer/probe sets (ABI) for FoxM1 (Mm00514924_ml), Gli1 (Mm00494645_ml), Gli2 (Mm01293117_ml), Mycn (Mm00476449_ml), Ptch1 (Mm00436026_ml), Ptch2 (Mm00436047_ml), Sfrp1 (Mm00489161_ml), Smo (Mm01162710_ml) and mouse GAPDH (4352339E), on the ABI 7900HT instrument. Target gene expression levels were normalized to mouse GAPDH and calibrated to vehicle treated mice to yield the relative quantitation (RQ) value. Selective Shh Inhibition in a Mouse Medulloblastoma Allograft Model Primary medulloblastoma tumors were harvested from Ptch^+/−p53^+/− or Ptch^+/−p53^−/− mice and propagated as allografts in SCID-bg mice 6-8 weeks of age (20 grams). Freshly isolated tumor fragments of approximately 50 mm^3 were surgically implanted subcutaneously into the hind flank region. Body weights and tumor size (length and width) were measured at regular intervals using a caliper and tumor volume was calculated using the formula: length (mm)×width (mm)×width (mm)×0.4. For the tumor growth inhibition studies, cohorts of Ptch^+/−p53^+/− medulloblastoma allograft bearing mice with tumors ranging from 200 mm^3 to 1000 mm^3 were dosed daily by oral gavage with vehicle (30% PEG 400/70% PBS) or with PF-04449913 formulated in vehicle.

normal human HSPC = assay: CD34+ cord blood engrafted NSG mice, 14-day treatment; format: in vivo; settings: 100 mg/kg for 14 days
Procedure: Cg-Prkdc^scid Il2rg^tm1Wjl/SzJ female mice at 7-10 weeks were irradiated sublethally and transplanted with 100K CD34^+ human cord blood cells via retro-orbital injection. Eight weeks after transplantation of cord blood cells, the mice were treated for 14 days with either vehicle, or PF-04449913 via oral gavage.
(§3) Single cell suspensions of bone marrow cells from mice treated with PF-0449913 or vehicle were immunostained with Alexa647-conjugated anti-human CD45 (BioLegend) in 2% fetal bovine serum/PBS followed by live cell staining using the LIVE/DEAD® Fixable Near-IR Dead Cell Stain Kit (Invitrogen). Surface stained cells were then fixed in 70% ethanol overnight. Fixed, surface stained cells were immunostained with FITC-conjugated anti-Ki-67 (Abcam, 1:100) in 0.15% saponin/2% fetal bovine serum/PBS, washed twice in saponin-containing staining media and incubated with 7-AAD (10 μg/mL in 0.1M sodium citrate/5 mM EDTA pH8.0/0.15M NaCl/0.5% BSA/0.02% saponin). Stained samples were analyzed using a FACSARIA™ and FLOWJO™^21.

[5] = tested on: blast crisis CML leukemic progenitors (LSC); assay: SL/M2 stromal co-culture of blast crisis CML LSC; format: cell-based, human; settings: 7 days, vs vehicle (DMSO), p=0.047
Procedure: Stromal Co-Culture and in vitro Drug Treatment
as §1, §2

[6] = tested on: human blast crisis CML LSC; format: in vivo
Procedure: Human Progenitor Primagrafts and Treatment
Equal numbers of primary normal or blast crisis CML CD34^+ cells were transplanted intrahepatically into neonatal RAG2^−/−γc^−/− mice to form primagrafts, according to established methods^1, 3. At 8-12 weeks post-transplant, mice were treated with PF-04449913, Dasatinib, a combination of PF-04449913 and Dasatinib, or drug vehicle for 14 days followed by FACS analysis of human hematopoietic engraftment in hematopoietic tissues.
Nanofluidic phospho-proteomic immunoassay (NPI) experiments were performed with the NANOPRO 1000™ instrument (Cell Biosciences) and all samples were run in triplicate at least. The FIREFLY™ system first performed a charge-based separation (isoelectric focusing). Predicted pIs were calculated with SCANSITE™. Each sample was run on a panel of different pH gradients (pH 5-8) to optimize the resolution of different peak patterns. After separation and photo-activated in-capillary immobilization, GLI-2 was detected using GLI2-specific antibody (Abcam). A β2-microglubulin-specific antibody (β2M; Upstate) was used to normalize the amount of loaded protein. The peaks were quantified by calculating the area under the curve (AUC).
Primagrafts, in vivo Drug Treatment, and Engraftment Analysis
Immunocompromised RAG2^−/−γc^−/− mice were bred and maintained in the UC San Diego Moores Cancer Center vivarium. Neonatal mice were transplanted intrahepatically with normal progenitors or LSC from primary patient samples according to our previously published methods^19. Upon detection of tumor or peripheral blood engraftment, mice were treated daily by oral gavage with vehicle (50% 1,2 Propandiol, 50% HBSS or methylcellulose), PF-04449913 (100 mg/kg dissolved in vehicle), Dasatinib (50 mg/kg dissolved in vehicle), combination of PF-04449913 (100 mg/kg) and dasatinib (50 mg/kg). After treatment, mice were euthanized and single cell suspensions of hematopoietic tissues were analyzed for human engraftment by FACS as described previously^19, 20. Similarly, NOD.
Four vehicle-treated and four PF-04449913-treated samples constituting two sets of four technical replicates. The reads from the four RNA sequencing experiments under each treatment regimen were then combined for analysis of effects of vehicle and PF-04449913-treatment containing a total of 65M and 64M reads, respectively and compared with normal FACS purified cord blood CD34^+CD38^+Lin^− progenitors.
as §3

[7] = cell cycle FACS, bone marrow, 14 days

CN1CC[C@@H](NC(=O)Nc2ccc(C#N)cc2)C[C@@H]1c1nc2ccccc2[nH]1 [PF-04449913]
percentage of normal HSPC ([1]; 7 days SL/M2 stromal co-culture): remained constant
differentiation capacity of normal human HSPC ([1]; hematopoietic progenitor assays): unimpaired
IC50 ([2]; 4.3 nM+/−5.2 nM, N=5, read-out: IC50, SMO competition binding, value with spread): 4.3 nM
IC50 ([2]; cyclopamine-competitive tritiated SMO antagonist, read-out: IC50, competition with radiolabeled SMO antagonist for binding to human SMO (amino acids 181-787)): 4 nM
IC50 [3]: 6.8 nM
medulloblastoma growth ([4]; Ptch1+/−p53+/− allograft model): significantly reduce medulloblastoma growth
Shh target gene expression in allograft ([4]; Ptch+/−p53+/− allografts): decreased Shh target gene expression
frequency of HSPC, myeloid and lymphoid cell fate commitment (normal human HSPC): remained comparable to vehicle treated controls
human hematopoietic cell cycle status (normal human HSPC): unaltered
LSC / leukemic progenitor survival [5]: significantly reduced; also recorded: reduction in blast crisis leukemic progenitor survival
spleen weight ([6]; 100 mg/kg daily, 14 days, p=0.006): significant decrease
body weight ([6]; 100 mg/kg oral gavage, 14 days): no evidence of weight loss
GLI1 transcript level in FACS purified progenitors ([6]; 100 mg/kg, 14 days, p=0.056): reductions
GLI2 transcript level in FACS purified progenitors ([6]; 100 mg/kg, 14 days, p=0.08): reductions
expression of cell cycle regulators ([6]; RNA sequencing of engrafted leukemic progenitors, family wise p-value 0.02): repression of cell cycle regulators
cell cycle gene isoforms shifting toward normal progenitor splice isoform pattern ([6]; RNA sequencing, Fisher exact test p=0.0006): 75 of 110
sonic hedgehog pathway isoforms reverting to normal progenitor splice isoform pattern ([6]; RNA sequencing, Fisher exact test p=0.0048): 37 of 50
fraction of leukemic progenitors in G0 [6, 7]: reduced the fraction of leukemic progenitors in G0
fraction of leukemic progenitors in G1 [6, 7]: increase in the G1 fraction
human GLI protein expression ([6]; immunofluorescence and nanoproteomics (p=0.001), vs vehicle): reduced human GLI protein expression
